Calls of active or inactive are those of the source.
Assays:
[1] = inhibitors of firefly luciferase expression or activity, dose response, H4 neuroglioma cells, luminescence (AID 1990); type: functional, cell-based
[2] = luciferase reporter signal reduction – luminescence, H4-C neuroglioblastoma cells, dose response (AID 2458); type: functional, cell-based;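 note: H4 neuroglioblastoma cells stably carrying a luciferase reporter gene fusion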
BJ [3] = experiment: cytotoxicity toward BJ-TERT fibroblasts, dose response, cell-based, RAS-independent, luminescence (AID 1933); type: functional; settings: Homo sapiens
[4] = biological target: Luciferin 4-monooxygenase (Photinus pyralis, UniProt P08659); experiment: Counter Screen for Luciferase-based Assay Positives. [Related pubchem assays: 620, 618, 411 ]
Luciferin 4-monooxygenase, sequence (P08659 whole entry): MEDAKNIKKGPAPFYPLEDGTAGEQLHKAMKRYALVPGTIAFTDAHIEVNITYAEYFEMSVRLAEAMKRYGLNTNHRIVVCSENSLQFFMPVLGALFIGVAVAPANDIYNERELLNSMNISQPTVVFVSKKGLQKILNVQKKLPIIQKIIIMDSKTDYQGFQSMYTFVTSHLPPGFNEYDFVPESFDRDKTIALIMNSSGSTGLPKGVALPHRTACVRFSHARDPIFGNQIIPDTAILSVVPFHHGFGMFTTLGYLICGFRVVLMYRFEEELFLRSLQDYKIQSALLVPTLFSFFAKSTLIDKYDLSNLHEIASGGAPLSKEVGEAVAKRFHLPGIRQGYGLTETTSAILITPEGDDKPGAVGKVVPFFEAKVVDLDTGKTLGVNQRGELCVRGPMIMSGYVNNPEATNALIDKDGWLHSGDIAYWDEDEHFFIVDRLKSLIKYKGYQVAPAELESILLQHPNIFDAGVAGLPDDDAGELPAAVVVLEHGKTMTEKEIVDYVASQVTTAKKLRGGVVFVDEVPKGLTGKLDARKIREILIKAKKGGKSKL

[5] = biological target: Glyceraldehyde-3-phosphate dehydrogenase (Homo sapiens, UniProt P04406)
Glyceraldehyde-3-phosphate dehydrogenase, sequence (P04406 whole entry): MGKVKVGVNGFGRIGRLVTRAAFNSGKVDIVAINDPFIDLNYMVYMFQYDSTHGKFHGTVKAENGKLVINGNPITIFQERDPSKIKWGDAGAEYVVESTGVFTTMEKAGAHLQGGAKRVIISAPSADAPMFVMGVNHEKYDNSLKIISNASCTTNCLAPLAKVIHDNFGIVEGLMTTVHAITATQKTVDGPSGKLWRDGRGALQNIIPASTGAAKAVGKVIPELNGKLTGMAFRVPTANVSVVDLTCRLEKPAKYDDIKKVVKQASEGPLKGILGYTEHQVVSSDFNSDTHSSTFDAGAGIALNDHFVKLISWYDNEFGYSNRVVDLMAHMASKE

cells = type: functional, cell-based
[6] = Luminescence Cell-Based Dose Response HTS to Identify Inhibitors of 5'UTR Stem-Loop Driven Prion Protein mRNA Translation in H4 Neuroglioblastoma Cells. [Related pubchem assays: 1827 (Project Summary), 1813 (Primary HTS)]; type: functional
[7] = inhibitors of SNCA 5'UTR-driven reporter translation, confirmation, H4 neuroglioma cells, luminescence (AID 1988); type: functional, cell-based
BJ [8] = experiment: cells; type: functional, cell-based; settings: Homo sapiens
[9] = Luminescence-based counterscreen assay for KLF5 inhibitors: dose response cell-based high throughput screening assay to identify cytotoxic compounds using the IEC-6 intestinal epithelial cell line. [Related pubchem assays: 1700 (Primary screen.), 1834 (Confirmation screen.), 1858 (Summary AID.), 1905 (Counterscreen.)]; type: functional
HT-1080 = experiment: cytotoxicity in HT1080 fibrosarcoma cells, cell-based, fluorescence readout (AID 620); type: functional; settings: Homo sapiens
BJ [10] = experiment: cytotoxicity toward BJ-TERT-LT-ST fibroblasts, dose response, cell-based, RAS-independent, luminescence (AID 1935); type: functional; settings: Homo sapiens;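 note: BJ fibroblasts immortalized with TERT plus LT and ST oncogenes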
[11] = cytotoxicity toward DRD oncogenic fibroblasts, dose response, cell-based, non-viral oncogenic, luminescence (AID 1934); type: functional; settings: Homo sapiens
[12] = inhibitors of SNCA 5'UTR-driven translation, confirmation, luminescence, H4 neuroglioblastoma cells, dose confirmation (AID 2454); type: functional, cell-based;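 note: H4 neuroglioblastoma cells carrying an alpha-synuclein 5'UTR luciferase reporter; potency for inhibition of the luciferase signal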
[13] = biological target: T1, Microphthalmia-associated transcription factor (Homo sapiens, UniProt O75030); experiment: TRPM1 promoter luciferase signal decrease, dose response, MITF inhibitor project, cell-based, SK-MEL-5, cherry-picked, set 3 (AID 493073); type: functional
T1 sequence (O75030 whole entry): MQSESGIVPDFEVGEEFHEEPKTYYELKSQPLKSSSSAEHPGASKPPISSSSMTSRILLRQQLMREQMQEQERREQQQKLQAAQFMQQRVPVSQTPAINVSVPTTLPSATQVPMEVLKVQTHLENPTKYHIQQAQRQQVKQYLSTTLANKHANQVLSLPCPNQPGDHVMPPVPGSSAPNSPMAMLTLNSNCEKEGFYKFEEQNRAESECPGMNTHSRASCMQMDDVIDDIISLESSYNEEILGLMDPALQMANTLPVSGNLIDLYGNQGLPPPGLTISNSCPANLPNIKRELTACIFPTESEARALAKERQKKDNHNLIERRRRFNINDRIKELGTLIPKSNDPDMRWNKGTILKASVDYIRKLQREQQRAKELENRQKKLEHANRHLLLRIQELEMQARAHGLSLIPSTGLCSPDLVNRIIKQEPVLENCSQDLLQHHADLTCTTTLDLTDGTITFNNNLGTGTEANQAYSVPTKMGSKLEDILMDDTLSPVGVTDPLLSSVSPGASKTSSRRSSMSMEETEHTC

BJ [14] = experiment: cytotoxicity toward Ras-transformed BJeLR fibroblasts, dose response, cell-based, alamar blue fluorescence, cherrypicked samples (AID 2631); type: functional; settings: Homo sapiens;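 note: confirmatory dose-response assay in RAS-dependent BJ fibroblasts engineered with TERT, LT and ST, with cytotoxicity read by fluorescence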
A-375 = experiment: MITF: Counter assay: A375 proliferation Measured in Cell-Based System Using Plate Reader - 2084-03_Inhibitor_Dose_DryPowder_Activity. [Related pubchem assays (depositor defined):AID488944]; type: functional; settings: Homo sapiens
[15] = A549 cell cytotoxicity, dose response, cytotoxicity control, plate reader, cherry-pick, antagonist series (AID 743412); type: functional, cell-based
[16] = HepG2 cell cytotoxicity, dose response, cytotoxicity control, plate reader, cherry-pick, antagonist series (AID 743416); type: functional, cell-based
[17] = LGR2 antagonists, dose response, cell-based, HEK293, CRE-luciferase reporter, cherry pick, set 2 (AID 743343); type: functional;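 note: transfected cells were stimulated with diluted bursicon conditioned medium after compound addition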
[18] = MC4R antagonists, dose response, counter-screen for LGR2 antagonist project, cell-based, plate reader, cherry pick (AID 743444); type: functional;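 note: transfected HEK 293 cells stimulated with alpha-MSH peptide; potency of inhibitors of the alpha-MSH evoked signal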
[19] = HEK293 cell cytotoxicity, dose response, cytotoxicity control, plate reader, cherry-picked samples (AID 743446); type: functional, cell-based
[20] = biological target: Neuropeptide Y receptor type 1 (Homo sapiens, UniProt P25929); type: functional;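 note: HEK293 cells with a CNG channel challenged with NPY then isoproterenol; potency as antagonist that reverses NPY suppression of cAMP signal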
Neuropeptide Y receptor type 1, sequence (P25929 whole entry): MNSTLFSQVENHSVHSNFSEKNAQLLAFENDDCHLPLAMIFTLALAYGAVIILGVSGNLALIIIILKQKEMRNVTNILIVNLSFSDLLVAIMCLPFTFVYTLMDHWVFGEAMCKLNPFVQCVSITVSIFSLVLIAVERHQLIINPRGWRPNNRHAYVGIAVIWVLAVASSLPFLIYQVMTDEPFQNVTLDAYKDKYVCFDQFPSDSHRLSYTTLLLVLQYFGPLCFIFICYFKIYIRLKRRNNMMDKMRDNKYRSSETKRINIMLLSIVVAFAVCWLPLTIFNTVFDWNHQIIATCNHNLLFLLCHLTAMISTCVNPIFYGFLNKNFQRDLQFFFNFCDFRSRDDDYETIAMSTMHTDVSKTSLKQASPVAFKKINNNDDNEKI

[21] = biological target: Neuropeptide Y receptor type 2 (Homo sapiens, UniProt P49146); type: functional, cell-based;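 note: HEK293 cells expressing the receptor and a CNG channel; stimulus was NPY near EC95 followed by isoproterenol to raise cAMP; antagonist potency measured as restoring cAMP signal that NPY suppresses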
Neuropeptide Y receptor type 2, sequence (P49146 whole entry): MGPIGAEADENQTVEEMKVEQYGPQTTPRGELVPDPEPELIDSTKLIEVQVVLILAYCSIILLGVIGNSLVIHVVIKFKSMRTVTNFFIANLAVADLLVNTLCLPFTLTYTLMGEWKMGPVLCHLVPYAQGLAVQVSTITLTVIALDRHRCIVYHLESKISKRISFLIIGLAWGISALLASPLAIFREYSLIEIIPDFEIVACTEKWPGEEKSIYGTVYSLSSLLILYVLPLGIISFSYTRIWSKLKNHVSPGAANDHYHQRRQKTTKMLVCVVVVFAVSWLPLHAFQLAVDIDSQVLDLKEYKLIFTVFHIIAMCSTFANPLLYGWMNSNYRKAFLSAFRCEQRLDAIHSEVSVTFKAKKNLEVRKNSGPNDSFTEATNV

[22] = biological target: T2, Alkaline phosphatase, tissue-nonspecific isozyme (Homo sapiens, UniProt P05186)
T2 sequence (P05186 whole entry): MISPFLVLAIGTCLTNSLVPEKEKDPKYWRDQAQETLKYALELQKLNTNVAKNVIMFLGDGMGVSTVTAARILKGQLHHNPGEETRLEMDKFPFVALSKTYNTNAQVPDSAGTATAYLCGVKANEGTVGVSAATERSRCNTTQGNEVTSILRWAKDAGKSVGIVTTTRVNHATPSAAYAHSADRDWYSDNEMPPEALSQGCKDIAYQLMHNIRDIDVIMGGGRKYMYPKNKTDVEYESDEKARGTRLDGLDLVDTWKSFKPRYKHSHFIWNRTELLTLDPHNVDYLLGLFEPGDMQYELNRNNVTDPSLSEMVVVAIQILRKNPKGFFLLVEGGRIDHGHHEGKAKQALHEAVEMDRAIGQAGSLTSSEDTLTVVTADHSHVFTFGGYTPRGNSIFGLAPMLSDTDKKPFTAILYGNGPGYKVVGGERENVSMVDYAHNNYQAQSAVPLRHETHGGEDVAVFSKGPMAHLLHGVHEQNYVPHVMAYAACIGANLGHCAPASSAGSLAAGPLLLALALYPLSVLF

[23] = polyadenylation inhibitors in yeast reporter, dose response, luminescence, S. cerevisiae SKY197-pL101 (AID 2525); type: functional, cell-based
[24] = Luminescence Cell-Based Dose Confirmation HTS to Identify Inhibitors of Polyadenylation.; type: functional
[25] = biological target: Mothers against decapentaplegic homolog 3 (Homo sapiens, UniProt P84022); experiment: Smad3 binding inhibitors, lysate ELISA, dose response, cell lysate, secondary confirmation, chemiluminescent ELISA, HEK293 lysate (AID 1058); type: functional
Mothers against decapentaplegic homolog 3, sequence (P84022 whole entry): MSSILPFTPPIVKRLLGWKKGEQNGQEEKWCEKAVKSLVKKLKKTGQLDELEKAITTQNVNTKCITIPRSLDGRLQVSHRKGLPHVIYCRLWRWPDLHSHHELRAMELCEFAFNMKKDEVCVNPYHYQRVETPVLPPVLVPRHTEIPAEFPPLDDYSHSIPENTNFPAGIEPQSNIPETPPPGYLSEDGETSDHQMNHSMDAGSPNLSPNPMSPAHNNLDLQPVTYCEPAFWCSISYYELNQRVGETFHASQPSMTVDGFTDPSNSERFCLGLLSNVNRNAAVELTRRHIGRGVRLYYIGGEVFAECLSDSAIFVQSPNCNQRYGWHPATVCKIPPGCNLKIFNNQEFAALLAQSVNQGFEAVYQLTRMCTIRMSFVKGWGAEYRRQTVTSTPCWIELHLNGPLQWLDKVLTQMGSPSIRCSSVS

Question: With `Cc1ccc(-c2nnc(SCC(=O)Nc3ccccc3F)o2)cc1` as the compound, how does the EC50 [1] read?
Answer: < 0.195 µM (active)

Question: What about the EC50 [2] of the same compound?
Answer: > 12 µM (inconclusive)

Question: What about the EC50 (BJ [3]) of the same compound?
Answer: 10.2 µM (active)

Question: And the EC50 [4]?
Answer: 9.52 µM (active)

Question: And the IC50 [5]?
Answer: > 100 µM (not active)

Question: What about the EC50 (cells) of the same compound?
Answer: 0.839 µM (active)

Question: What about the EC50 [6] of the same compound?
Answer: < 0.1 µM (active)

Question: And the EC50 [7]?
Answer: < 0.1 µM (active)

Question: What about the EC50 (BJ [8]) of the same compound?
Answer: 6.59 µM (active)

Question: And the IC50 [9]?
Answer: 34.7 µM (not active)

Question: What about the EC50 (HT-1080) of the same compound?
Answer: > 50 µM (not active)

Question: What about the EC50 (BJ [10]) of the same compound?
Answer: 21.7 µM (active)

Question: What about the EC50 [11] of the same compound?
Answer: 7.36 µM (inconclusive)

Question: What about the EC50 [12] of the same compound?
Answer: > 12 µM (inconclusive)

Question: And the AC50 [13]?
Answer: 2.3 µM (active)

Question: What about the EC50 (BJ [14]) of the same compound?
Answer: > 133 µM (inactive)

Question: What about the AC50 (A-375) of the same compound?
Answer: 33.7 µM (active)

Question: What about the AC50 [15] of the same compound?
Answer: 8.7 µM (active)

Question: What about the AC50 [16] of the same compound?
Answer: 12.4 µM (active)

Question: What about the AC50 [17] of the same compound?
Answer: 7.12 µM (active)

Question: What about the AC50 [18] of the same compound?
Answer: 14.7 µM (active)

Question: And the AC50 [19]?
Answer: 9.16 µM (active)

Question: Which results are given for `COc1ccc(Cn2c(/C=C/c3ccccc3)nc3ccccc32)cc1`?
Answer: IC50 [20]: 4.02 µM (active); IC50 [21]: 5.51 µM (active)

Question: With `COc1cc(C(=S)N2CCOCC2)ccc1OC(=O)/C=C/c1ccco1` as the compound, how does the EC50 [22] read?
Answer: > 100 µM (not active)

Question: Which EC50 [1] does the source give for `O=C(Oc1c(-c2ccccc2)c(=O)n2c3c(cccc13)CC2)c1cccc([N+](=O)[O-])c1` here?
Answer: 12 µM (active)

Question: And the EC50 [23]?
Answer: 3.89 µM (active)

Question: What about the EC50 [6] of the same compound?
Answer: 12.3 µM (active)

Question: What about the EC50 [7] of the same compound?
Answer: 13 µM (active)

Question: And the EC50 [24]?
Answer: 9.78 µM (active)

Question: For `Oc1cc2c(cc1C(c1ccc3c(c1)OCO3)N1CCCCC1)OCO2` (stereo unspecified), which IC50 [25] is on record?
Answer: > 40 µM (not active)
